Measurements from patent publication US20230118682A1, “MODIFIED J-AGGREGATES AND CONJUGATES THEREOF” (GEORGE MASON UNIVERSITY, priority 2021, published 2023).
“And” between values parts separate entries of the source, which are not always exact repeats. Identical values can stand only once.

Legend:
[1] = Fluorescence measurements; format: physicochemical; details: excitation 720 nm, emission 770-850 nm
Method: Fluorescence measurements: Fluorescence intensity of different concentrations of free ICG dye and J-aggregates was recorded using a Tecan Safire^2™ (Mannendorf, Switzerland) fluorescence microplate reader. Both free ICG dye and J-aggregate particles were excited at 720 nm with an emission at 770 nm. The fluorescence emission spectrum was recorded from 770 to 850 nm with a step size of 2 nm.

in vivo = experiment: in vivo
Method: (§1) We first acquired multiwavelength images of microcuvette tubes containing 0.4 mM of ICG dye or RGD-JAAZ particles to evaluate the PA spectra of both contrast agents. […] For in vivo imaging experiments, multispectral PAI were acquired in two female nu/nu nude mice at various timepoints (0, 10, 90 min) following tail-vein administration of ICG dye and RGD-JAAZ particles (FIGS. 39A-39D). A pre-injection baseline PA signal at 895 nm was also acquired for reference (FIG. 39B). […] Molecular maps were generated from a linear spectral unmixing of the multiwavelength PA images using previously reported spectra for hemoglobin and the measured spectra of the RGD-JAAZ particles at their injection concentration.

[2] = Phantom PA spectra on TriTom imaging system; details: 0.4 mM in microcuvette tubes
Method: as §1

[3] = Photoacoustic signal relative to whole blood; parameters: species or system sheep; details: 20 μM, excited at 895 nm, PTFE tubing
Method: Photoacoustic Measurement: The 96-well plate was secured to the bottom of a plastic water reservoir. The reservoir was filled with deionized water, completely submerging the sample. For comparison of smaller volumes, 2-inch segments of 24-gauge PTFE tubing ([…]) was filled with various samples. The tubes were placed in a clear acrylic chamber submerging the samples in deionized water. A single element piezoelectric 35 MHz or 5 MHz focused transducer (V326, Olympus, Mass., USA) was fixed at 12 mm or 45 mm above each sample with their functional element submerged in deionized water. […] The photoacoustic signal recorded from the transducer is sent to a 20/40db amplifier (HVA-200M, Femto) from there the signal is recorded through a lock-in amplifier (Zurich Instruments, Zurich, Switzerland) triggered on each laser pulse using a photodiode placed near the laser source. […] The absolute amplitude of each waveform was calculated, averaged, and normalized to the signal recorded from India ink or whole sheep's blood containing anticoagulant.
To explore the possibility of using JAAZ in vivo, the photoacoustic signal was compared to whole blood. […] PA signals were recorded from each sample and the signal amplitude was normalized to the whole-blood PA-signal amplitude (FIG. 5D). […]
The in-vitro photoacoustic (PA) properties of the N-JAAZ particles were further evaluated. […]

CC1(C)C(/C=C/C=C/C=C/C=C2\N(CCCCS(=O)(=O)O)c3ccc4ccccc4c3C2(C)C)=[N+](CCCCS(=O)(=O)[O-])c2ccc3ccccc3c21 [ICG, Indocyanine Green]
fluorescence emission [1]: recordable fluorescence intensity | Contrast-to-noise ratio (in vivo; blood vessels, 90-minutes post-injection, n=2): 1.59 | half-life (in vivo; female, nu/nu nude, mouse, in vivo): 1.19 ± 0.45 min | peak PA signal wavelength (phantom) [2]: 740 nm and 780 nm | PA signal relative to whole blood [3]: ~0.03 x
